What was measured:
Caco-2/TC7 tumor cells = assay: MTT cell viability, tumor Caco-2/TC7 cells (5 days after seeding); type: cell-based, human; details: for IC50: Caco-2/TC7, 5 days after seeding, 72 h incubation, MTT; for Tumor Cells Selectivity over Normal Cells: ratio of IC50 normal / tumor Caco-2/TC7 cells
Experimental: This study was conducted in the human enterocyte-like cell line Caco-2/TC7 [44]. This cell line undergoes a process of spontaneous differentiation in culture that leads to the formation of a monolayer of cells, expressing the morphological and functional characteristics of the mature enterocytes. This differentiation process is growth-dependent, where the cells undergo differentiation from “undifferentiated proliferative crypt-type cells” in the exponential phase of growth, to “differentiated enterocyte-type cells” in the stationary phase. The cell culture of Caco-2/TC7 cells (passages 30–50) was performed according to a previously reported method.
Cell survival was measured using the MTT test. The assay depends on the cellular reduction of 3-(4,5-dimethylthiazol-2-yl)-2,5-diphenyltetrazolium bromide (MTT, Sigma-Aldrich, Madrid, Spain) by the mitochondrial dehydrogenase of viable cells to a blue formazan product that can be measured spectrophotometrically, as previously described.
The in vitro cytotoxic effect was evaluated on human colon cancer cell line Caco-2/TC7. This particular cell line presents a huge advantage for toxicity studies because of its spontaneous enterocytic-like differentiation when confluence is reached. Therefore, Caco-2 cells become polarized cells expressing apical and basolateral surfaces with well-established tight junctions. Thus, cells present noncarcinogenic behavior in the confluence and the cytotoxic effect of our complexes can be performed on differentiated cells to evaluate the selectivity toward tumor cells. For the antiproliferative studies, MTT assay was performed after 72 h of exposure to different concentrations of the complexes at two different stages of confluence, five days to evaluate the effect on tumor cells (Figure S7) and 15 days for normal cells (Figure S8).

Caco-2/TC7 cells = assay: Oxidative stress damage, protein carbonyl levels (DNPH); type: cell-based, human; details: 20 μM, 24 h
Experimental: Cell homogenates needed for this assay were prepared according to a previously described method. Protein oxidation was analyzed by carbonyl-level measurement as previously described. Cell homogenates were incubated with the classical carbonyl reagent 2,4-dinitrophenylhydrazine (DNPH), and protein carbonylation was measured spectrophotometrically at 375 nm. The results were calculated in nmol carbonyl groups mg^−1 protein.
According to the literature, gold complexes act as anticancer agents by the disruption of redox homeostasis. As a result, the concentration of ROS species rises and consequently, main biomolecules, such as lipids, proteins, or even DNA, can be oxidized. However, tumor cells present an overproduction of ROS species due to their high metabolism. The most common anticancer strategy is promoting a higher oxidative damage in biomolecules to trigger the apoptosis process. […] In this study, we evaluated the oxidation levels of the carbonyl groups present in proteins by the established method of 2,4-dinitrophenylhydrazine (DNPH).
Figure 6 Carbonyl levels (nmol mg^−1 protein) in Caco-2/TC7 cells treated with vehicle DMSO (control) or gold(III) complexes (24 h, 20 μM). Values are expressed as mean values ± SEM (n ≥ 6 experiments). ** p < 0.01; *** p < 0.001 vs. control.

[1] = tested on: methicillin-resistant Staphylococcus aureus (Sa); type: cell-based; details: 18 h, 37 °C, inhibition ≥ 80%
Experimental: The antimicrobial assays were performed according to the protocols of the Community for Open Antimicrobial Drug Discovery (CO-ADD). C1–6 were prepared in DMSO and water to a final testing concentration of 32 μg/mL and serially diluted 1:2-fold 8 times. Each sample concentration was prepared in 384-well plates, non-binding surface plate (NBS; Corning 3640) for each bacterial/fungal strain, all in duplicate (n = 2), and keeping the final DMSO concentration to a maximum of 0.5%. All the sample preparation was done using liquid-handling robots.
(§1) The antibacterial activity of all synthesized complexes was evaluated in five different pathogenic bacteria, including methicillin-resistant Staphylococcus aureus (Sa), Escherichia coli (Ec), Klebsiella pneumonia (Kp), Psedomonas aeruginosa (Pa), and Acinetobacter baumannii (Ab). All bacteria were cultured in cation-adjusted Mueller Hinton Broth (CAMHB) at 37 °C overnight. A sample of each culture was then diluted 40-fold in fresh broth and incubated at 37 °C for 1.5–3 h. The resultant mid-log phase cultures were diluted (CFU/mL measured by OD600), then added to each well of the complexes containing plates, giving a cell density of 5 × 10^5 CFU/mL and a total volume of 50 μL. All the plates were covered and incubated at 37 °C for 18 h without shaking. The inhibition of bacterial growth was determined by measuring the absorbance at 600 nm (OD600) using a Tecan M1000 Pro monochromator plate reader (Männedorf, Switzerland). The percentage of growth inhibition was calculated for each well, using the negative control (media only) and positive control (bacteria without inhibitors) on the same plate as references. […]

[2] = tested on: Acinetobacter baumannii (Ab); assay: Antibacterial MIC assay (CO-ADD); type: cell-based; details: 18 h, 37 °C, inhibition ≥ 80%
Experimental: (§2) The antimicrobial assays were performed according to the protocols of the Community for Open Antimicrobial Drug Discovery (CO-ADD). […] All the sample preparation was done using liquid-handling robots.
as §1

Escherichia coli (Ec) = assay: Antibacterial MIC assay (CO-ADD); type: cell-based; details: 18 h, 37 °C, inhibition ≥ 80%
Experimental: as §2, §1

[3] = tested on: Psedomonas aeruginosa (Pa); assay: Antibacterial MIC assay (CO-ADD); type: cell-based; details: 18 h, 37 °C, inhibition ≥ 80%
Experimental: as §2, §1

Candida albicans (Ca) = assay: Antifungal MIC assay (CO-ADD); type: cell-based; details: 36 h, 35 °C, inhibition ≥ 80%
Experimental: as §2
(§3) The antifungal activity of all synthesized complexes was evaluated in two different fungi, Candida albicans (Ca) and Cryptococcus neoformans (Cn). Fungi strains were cultured for 3 days on yeast extract–peptone–dextrose (YPD) agar at 30 °C. A yeast suspension of 1 × 10^6 to 5 × 10^6 CFU/mL (as determined by OD530) was prepared from five colonies. The suspension was subsequently diluted and added to each well of the complex-containing plates, giving a final cell density of fungus suspension of 2.5 × 10^3 CFU/mL and a total volume of 50 μL. All plates were covered and incubated at 35 °C for 36 h without shaking. […] The absorbance was measured using a Biotek Multiflo Synergy HTX plate reader (Winooski, VT, USA). In both cases, the percentage of growth inhibition was calculated for each well, using the negative control (media only) and positive control (fungi without inhibitors) on the same plate. […] Due to a higher variance in growth and inhibition, a lower threshold was applied to the data for C. neoformans.

[4] = tested on: Cryptococcus neoformans (Cn); assay: Antifungal MIC assay (CO-ADD); type: cell-based; details: 36 h, 35 °C, inhibition ≥ 70%
Experimental: as §2, §3

Q: For `Cc1ccc(-c2ccccn2)[c]([Au+][S]C(=S)N(C)C)c1.F[P-](F)(F)(F)(F)F` [Complex C1, [Au(tpy)(dmdtc)] PF6], which IC50 (Caco-2/TC7 tumor cells) is on record?
A: 5.11 ± 0.12 µM

Q: And the “Tumor Cells Selectivity over Normal Cells” value (shortened to “Tumor Cells Selectivity”) (Caco-2/TC7 tumor cells)?
A: 4.5-fold

Q: And the “oxidized protein (carbonyl) levels vs control” value (Caco-2/TC7 cells)?
A: did not promote oxidative stress damage

Q: What about the “MIC Sa” value [1] of the same compound?
A: ≤0.25 µg/mL

Q: What about the “MIC Ab” value [2] of the same compound?
A: >32 µg/mL

Q: And the “MIC Ec” value (Escherichia coli (Ec))?
A: 32 µg/mL

Q: What about the “MIC Pa” value [3] of the same compound?
A: >32 µg/mL

Q: What about the “MIC Ca” value (Candida albicans (Ca)) of the same compound?
A: >32 µg/mL

Q: What about the “MIC Cn” value [4] of the same compound?
A: 32 µg/mL

Q: What does the source list for `CN(C)C(=S)[S][Au+][c]1ccccc1-c1ccccn1.F[P-](F)(F)(F)(F)F` [Complex C2, [Au(ppy)(dmdtc)]PF6]?
A: IC50 (Caco-2/TC7 tumor cells): 1.79 ± 0.12 µM; Tumor Cells Selectivity over Normal Cells (Caco-2/TC7 tumor cells): 8.8-fold; MIC Sa [1]: ≤0.25 µg/mL; MIC Ab [2]: 32 µg/mL; MIC Ec (Escherichia coli (Ec)): 32 µg/mL; MIC Pa [3]: >32 µg/mL; MIC Ca (Candida albicans (Ca)): 32 µg/mL; MIC Cn [4]: 32 µg/mL

Q: For `CCN(CC)C(=S)[S][Au+][c]1cc(C)ccc1-c1ccccn1.F[P-](F)(F)(F)(F)F` [Complex C3, [Au(tpy)(dedtc)]PF6], which IC50 (Caco-2/TC7 tumor cells) is on record?
A: 1.85 ± 0.36 µM

Q: And the “Tumor Cells Selectivity” value (Caco-2/TC7 tumor cells)?
A: 7.0-fold

Q: What about the “MIC Sa” value [1] of the same compound?
A: ≤0.25 µg/mL

Q: What about the “MIC Ab” value [2] of the same compound?
A: >32 µg/mL

Q: And the “MIC Ec” value (Escherichia coli (Ec))?
A: 32 µg/mL

Q: What about the “MIC Pa” value [3] of the same compound?
A: >32 µg/mL

Q: What about the “MIC Ca” value (Candida albicans (Ca)) of the same compound?
A: >32 µg/mL

Q: What about the “MIC Cn” value [4] of the same compound?
A: 2 µg/mL

Q: Which results are given for `Cc1ccc2[c](c1)[Au-]1([S]C(N(Cc3ccccc3)Cc3ccccc3)=[S+]1)[n+]1ccccc1-2.F[P-](F)(F)(F)(F)F` (stereo not shown) [Complex C5, [Au(tpy)(dbdtc)]PF6]?
A: IC50 (Caco-2/TC7 tumor cells): 2.07 ± 0.11 µM; oxidized protein (carbonyl) levels vs control (Caco-2/TC7 cells): did not promote oxidative stress damage; MIC Sa [1]: 32 µg/mL; MIC Ab [2]: >32 µg/mL; MIC Ec (Escherichia coli (Ec)): >32 µg/mL; MIC Pa [3]: >32 µg/mL; MIC Ca (Candida albicans (Ca)): 32 µg/mL; MIC Cn [4]: 32 µg/mL

Q: Which results are given for `F[P-](F)(F)(F)(F)F.S=C([S][Au+][c]1ccccc1-c1ccccn1)N(Cc1ccccc1)Cc1ccccc1` [Complex C6, [Au(ppy)(dbdtc)]PF6]?
A: IC50 (Caco-2/TC7 tumor cells): 4.02 ± 0.3 µM; Tumor Cells Selectivity over Normal Cells (Caco-2/TC7 tumor cells): 6.2-fold; oxidized protein (carbonyl) levels vs control (Caco-2/TC7 cells): did not promote oxidative stress damage; MIC Sa [1]: 4 µg/mL; MIC Ab [2]: 32 µg/mL; MIC Ec (Escherichia coli (Ec)): >32 µg/mL; MIC Pa [3]: >32 µg/mL; MIC Ca (Candida albicans (Ca)): 4 µg/mL

Q: With [Au(ppy)(dedtc)]PF6 [Complex C4] as the compound, how does the IC50 (Caco-2/TC7 tumor cells) read?
A: 2.47 ± 0.25 µM

Q: And the “Tumor Cells Selectivity” value (Caco-2/TC7 tumor cells)?
A: 6.8-fold

Q: And the “MIC Sa” value [1]?
A: ≤0.25 µg/mL

Q: What about the “MIC Ab” value [2] of the same compound?
A: >32 µg/mL

Q: What about the “MIC Ec” value (Escherichia coli (Ec)) of the same compound?
A: 32 µg/mL

Q: And the “MIC Pa” value [3]?
A: >32 µg/mL

Q: And the “MIC Ca” value (Candida albicans (Ca))?
A: 32 µg/mL

Q: And the “MIC Cn” value [4]?
A: 32 µg/mL
